Results reported in patent US20050178959A1, “Methods and compositions for assessing a sample by maldi mass spectrometry” (priority 2004, published 2005).
No end group written: not given here. *: point of attachment. Biotin = O=C1N[C@H]2[C@H](CS[C@H]2CCCCC(=O)*)N1

Columns and labels:
GST-14-3-3 = test: Peptide capture on streptavidin-agarose beads in filter plate, tryptic digestion, MALDI MS detection of bound GST-14-3-3; format: binding; conditions: sample GST-14-3-3; for signal size (number in brackets) of MALDI MS signal: m/z1245.7, signal size of about 1000 or more indicates significant binding; for signal size (number in brackets) of second MALDI MS signal: m/z1255.9, for SmB the signal is […]
Description: (§1) To make the peptide array, the wells of a multiwell (i.e., 96-well filtration plate from Millipore having a pore size of 1.2 μm) filtration plate were first filled with a known volume of a suspension containing Streptavidin-linked agarose beads (Sigma). The biotinylated peptides were added (each in a separate well) and allowed to incubate with the avidin beads for a defined time interval following which vacuum (5-6 in. Hg) was applied to remove excess liquid. The immobilized peptides were then ready to be incubated with the protein mixture (e.g., a brain extract). After incubation, the peptide-protein complexes were washed in parallel, and subsequently subjected to enzymatic digestion (following in-gel digestion protocol). After digestion directly in the membrane plate, the digests were transferred to a MALDI plate for MS analysis, after concentration using a C18 resin-containing Millipore C18 ZIPTIP™ pipette tips.
(§2) In detail, 40 μL of streptavidin-agarose conjugate (Sigma S1638) was added to each well of a 96 well membrane filter plate washed with 200 μL of 1 mM TRIS HCl pH 7.5 (TRIS buffer) buffer using vacuum filtration. The beads were not allowed to dry out. The capture agents (e.g., biotinylated peptides, biotinylated antibodies, tagged proteins) were diluted with 1 mM TRIS HCl pH 7.5 buffer and 20 μL of each capture agent solution (at concentration of 1-2 mg/mL) was added to wells containing the avidin-agarose conjugate. The beads and capture agent were incubated for 1.5 to 2 hrs at room temperature using an orbital shaker (the plate was sealed during the incubation to avoid evaporation of the buffer). After incubation, excess solution was removed and the beads were washed with 200 μL of 1 mM TRIS HCl pH 7.5. A sample containing a protein of interest in TRIS buffer was added to the beads and the sample and beads were incubated overnight at room temperature using an orbital shaker (again using a sealed plate). The liquid was removed and the beads were washed using 200 μL of TRIS buffer. The capture agent-protein complexes, which are attached to the avidin-sepharose beads, were digested with 25 μL of trypsin in TRIS (concentration 20 μg/mL) at 45C for 45 min (again in a sealed plate). The 96 well plate containing the beads was placed in a manifold, and a vacuum was applied to collect each digest in a separate well of another 96-well plate. Using C18 ZIPTIP™ pipette tips (Millipore Corporation or equivalent) the digested peptides were extracted by prewashing the ZIPTIP™ with water/acetonitrile 1:1 then water containing 0.1% trifluoro-acetic acid, and then using the ZIPTIP™ pipette tips to capture the peptides from each well by moving each sample into and out of the tip at least 10 times, and wash the ZIPTIP™ pipette tip with water containing 0.1%TFA (trifluoroacetic acid). The peptides were eluted from the ZIPTIP™ pipette tip with MALDI matrix solution (e.g., 3-4 μL of HCCA at 0.5-1 mg/mL in actetonitrile/water or methanol/acetonitrile/water containing acetic acid) and spotted directly onto a MALDI sample plate.
(§3) The headers for each of the columns of Table 2 indicate, for each experiment, the peptide used as a capture agent. The first column of Table 2 indicates, for each experiment, the sample used. GST-CAP1, GST-FBP21, GST-14-3-3 are described above. “Brain extract” is a soluble protein extract of homogenized mouse brain, and, “QC” indicates the negative controls performed. M/z values indicate mass-to-charge ratios, and numbers in brackets indicate the size of the signal obtained, indicating the amount of the analytes present. In general, a signal size of about 1000 or more indicates significant binding.

[1] = biological target: T1, GST-FBP21 (a protein having WW domain) (Homo sapiens, UniProt O75554); test: Peptide capture on streptavidin-agarose beads in filter plate, tryptic digestion, MALDI MS detection of bound GST-FBP21; conditions: sample GST-FBP21; m/z 1138.7 or 1152.8; signal size of about 1000 or more indicates significant binding
T1 construct: GST
T1 sequence (O75554 1-376): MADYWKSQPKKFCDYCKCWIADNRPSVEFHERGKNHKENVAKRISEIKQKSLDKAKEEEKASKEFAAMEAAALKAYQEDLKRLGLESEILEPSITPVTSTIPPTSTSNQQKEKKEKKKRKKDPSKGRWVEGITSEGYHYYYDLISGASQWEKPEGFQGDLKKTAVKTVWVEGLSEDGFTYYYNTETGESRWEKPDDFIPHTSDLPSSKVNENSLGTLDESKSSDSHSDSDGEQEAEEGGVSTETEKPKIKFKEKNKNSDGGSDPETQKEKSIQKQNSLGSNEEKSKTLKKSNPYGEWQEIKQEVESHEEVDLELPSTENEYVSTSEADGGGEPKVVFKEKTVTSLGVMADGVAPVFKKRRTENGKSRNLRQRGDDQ
Description: as §1, §2
The headers for each of the columns of Table 2 indicate, for each experiment, the peptide used as a capture agent. The first column of Table 2 indicates, for each experiment, the sample used. GST-CAP1, GST-FBP21, GST-14-3-3 are described above. “Brain extract” is a soluble protein extract of homogenized mouse brain, and, “QC” indicates the negative controls performed. […]

[2] = system: GST-CAP1 (a protein having PDZ domain); test: Peptide capture on streptavidin-agarose beads in filter plate, tryptic digestion, MALDI MS detection of bound GST-CAP1; conditions: sample GST-CAP1; m/z as printed in cell above (1358.8 or 1152.6); signal size of about 1000 or more indicates significant binding
Description: as §1, §2, §3

p60Src = p60Src (Homo sapiens, UniProt P12931); test: SmB immobilized on avidin beads incubated with Src, digestion, MALDI MS (QC); format: binding
Source text: The following were used as targets: GST-CAP1 (a protein having PDZ domain), GST-FBP21 (a protein having WW domain), GST-14-3-3, p60Src (a protooncogene tyrosine protein kinase known not to bind to any of the peptides listed above), and a mouse brain protein extract. Four of the 8 target peptides are proline-rich peptides, which are identified as SmB, CDC25, LD10 and WBP1, and are known to bind SH3 domains.
as §1, with “After digestion directly in the membrane plate, the digests were transferred to a MALDI plate for MS analysis, after concentration using a C18 resin-containing Millipore C18 ZIPTIP™ pipette tips.” left out
Significant binding was detected between several capture agents and several probes.

[3] = system: mouse brain protein extract; test: Peptide capture of proteins from brain extract, tryptic digestion, MALDI MS; format: binding; conditions: for signal size of MALDI MS signal: sample brain extract (soluble protein extract of homogenized mouse brain), about 1000 or more indicates significant binding
Description: as §1
as §2, with “Using C18 ZIPTIP™ pipette tips (Millipore Corporation or equivalent) the digested peptides were extracted by prewashing the ZIPTIP™ with water/acetonitrile 1:1 then water containing 0.1% trifluoro-acetic acid, and then using the ZIPTIP™ pipette tips to capture the peptides from each well by moving each sample into and out of the tip at least 10 times, and wash the ZIPTIP™ pipette tip with water containing 0.1%TFA (trifluoroacetic acid). The peptides were eluted from the ZIPTIP™ pipette tip with MALDI matrix solution (e.g., 3-4 μL of HCCA at 0.5-1 mg/mL in actetonitrile/water or methanol/acetonitrile/water containing acetic acid) and spotted directly onto a MALDI sample plate.” left out

Substance	signal size (number in brackets) of MALDI MS signal (GST-14-3-3)	signal size (number in brackets) of second MALDI MS signal (GST-14-3-3)	signal size (number in brackets) of MALDI MS signal [1]	signal size (number in brackets) of MALDI MS signal [2]	binding of p60Src (p60Src)	binding of WD11 repeat protein (WDR11) from brain extract ([3]; brain extract, spectra matched to known WD11 repeat protein (Table 3))	signal size of MALDI MS signal [3]
Biotin-SGSGEQPLT*PVTDL [CDC25]	(0)	(800)	(500)	(480)			
Biotin-PPGMRPPPPGMRRGPPPPGMRPPRP [SmB]	(0)	(3,000) is		0	did not significantly bind	binds only the SmB peptide	
Biotin-SGSGGAPPTPPPLPP [LD10]	(150)		(15,000)	(1,600)			
Biotin-SGSGGTPPPPYTVG [WBP1]	0		(9,000)	0			<100
Biotin-SGSGVLIKRRST*EL-COOH [COXG]	(500)		(30,000)	0			<100
Biotin-SGSGVLIKRRSTEL-OH [COXD]	(3600)		(200)	(1,100)			<50
